Test results: ChEMBL document CHEMBL1158924, “Cytotoxic constituents of the bark of Plumeria rubra collected in Indonesia” (1990)
In brackets after ≈: the same amount, converted by molar mass.

Columns and labels:
Format in all cases: functional
KB = assay: Cytotoxicity against human KB cells; conditions: read-out: ED50 (the source's name)
[1] = Cytotoxicity against human melanoma cells; conditions: Melanoma cell, read-out: ED50 (the source's name)
HT-1080 = assay: Cytotoxicity against human HT1080 cells; conditions: read-out: ED50 (the source's name)
[2] = Cytotoxicity against human colon cancer cells; conditions: Cancer cell lines, read-out: ED50 (the source's name)
[3] = Cytotoxicity against human breast cancer cells; conditions: Cancer cell lines, read-out: ED50 (the source's name)
P388 = assay: Cytotoxicity against mouse P388 cells; conditions: read-out: ED50 (the source's name)
[4] = Cytotoxicity against human lung cancer cells; conditions: Cancer cell lines, read-out: ED50 (the source's name)

Row | Compound | EC50 (KB) [µg/mL] | EC50 [1] [µg/mL] | EC50 (HT-1080) [µg/mL] | EC50 [2] [µg/mL] | EC50 [3] [µg/mL] | EC50 (P388) [µg/mL] | EC50 [4] [µg/mL]
1 | COC(=O)C1=CO[C@@H](O[C@@H]2O[C@H](CO)[C@@H](O)[C@H](O)[C@H]2O)[C@H]2[C@@H]1C=C[C@@]21C=C([C@H](C)O)C(=O)O1 [PLUMIERIDE] | > 50 | > 50 | > 50 | > 50 | > 50 | > 50 | > 50
2 | C[C@H](O)C1=C[C@@]2(C=C[C@@H]3C(C(=O)O)=CO[C@@H](O[C@@H]4O[C@H](CO)[C@@H](O)[C@H](O)[C@H]4O)[C@@H]32)OC1=O | > 50 | > 50 | > 50 | > 50 | > 50 | > 50 | > 50
3 | COc1cc([C@H]2OC[C@H]3[C@@H]2CO[C@@H]3c2cc(OC)c(O[C@@H]3O[C@H](CO)[C@@H](O)[C@H](O)[C@H]3O)c(OC)c2)cc(OC)c1O[C@@H]1O[C@H](CO)[C@@H](O)[C@H](O)[C@H]1O [LIRIODENDRIN] | 6 (≈ 8.08 µM) | 19 (≈ 25.6 µM) | 8.9 (≈ 12 µM) | 16 (≈ 21.5 µM) | 30 (≈ 40.4 µM) | 2.4 (≈ 3.23 µM) | 6 (≈ 8.08 µM)
4 | COC(=O)C1=CO[C@@H](O[C@@H]2O[C@H](CO)[C@@H](O)[C@H](O)[C@H]2O)[C@H]2[C@@H]1C=C[C@@]21C=C([C@H](C)OC(=O)/C=C/c2ccc(O)cc2)C(=O)O1 | > 50 | > 50 | > 50 | > 50 | > 50 | > 50 | > 50
5 | C/C=C1/C(=O)O[C@@]23C=C[C@H]4[C@@H](C(=O)OC)[C@H](O)O[C@@H](O[C@H]12)[C@H]43 [ALLAMANDIN] | 0.4 (≈ 1.3 µM) | 0.3 (≈ 0.973 µM) | 0.8 (≈ 2.59 µM) | 0.3 (≈ 0.973 µM) | 0.4 (≈ 1.3 µM) | 0.2 (≈ 0.649 µM) | 0.7 (≈ 2.27 µM)
6 | COC(=O)[C@@H]1CO[C@@H](O)[C@H]2[C@@H]1C=C[C@@]21C=C([C@H](C)O)C(=O)O1 | > 50 | > 50 | > 50 | > 50 | > 50 | > 50 | > 50
7 | COC(=O)[C@@H]1CO[C@H](O)[C@H]2[C@@H]1C=C[C@@]21C=C([C@H](C)O)C(=O)O1 | > 50 | > 50 | > 50 | > 50 | > 50 | > 50 | > 50
8 | C/C=C1/C(=O)O[C@@]23C=C[C@H]4C[C@H](O)O[C@@H](O[C@H]12)[C@H]43 [ALLAMCIN] | 0.3 (≈ 1.2 µM) | 0.9 (≈ 3.6 µM) | 3.1 (≈ 12.4 µM) | 0.3 (≈ 1.2 µM) | 0.1 (≈ 0.4 µM) | 0.2 (≈ 0.799 µM) | 1.2 (≈ 4.8 µM)
9 | C/C=C/C=C1\C=Cc2c(C(=O)OC)coc(=O)c21 [FULVOPLUMIERIN] | 4.6 (≈ 18.8 µM) | 0.7 (≈ 2.87 µM) | 3.4 (≈ 13.9 µM) | 1.3 (≈ 5.32 µM) | 3.5 (≈ 14.3 µM) | 2.5 (≈ 10.2 µM) | 3 (≈ 12.3 µM)
10 | COC1=CC(=O)C(OC)=CC1=O | 3.8 (≈ 22.6 µM) | 2.7 (≈ 16.1 µM) | 3.4 (≈ 20.2 µM) | 1.4 (≈ 8.33 µM) | 5.2 (≈ 30.9 µM) | 2.5 (≈ 14.9 µM) | 1.3 (≈ 7.73 µM)
11 | C/C=C1/C(=O)O[C@]23C=C[C@@H]4C(C(=O)OC)=CO[C@H](O[C@@H]12)[C@@H]43 [PLUMERICIN] | 0.3 (≈ 1.03 µM) | 2.8 (≈ 9.65 µM) | 0.2 (≈ 0.689 µM) | 0.1 (≈ 0.345 µM) | 0.4 (≈ 1.38 µM) | 1.2 (≈ 4.13 µM) | 0.2 (≈ 0.689 µM)
